The first experiment addresses T1, telomerase (MCF-7 cell lysates) (Homo sapiens, UniProt O14746).
T1 construct: endogenous in cells; host or cells: MCF-7
As to the kind of experiment: TRAP assay in cell lysates (PCR-based telomerase activity assay). It counts as biochemical. The note with it: IC50, Table 2, C-3 group; TRAP assay. An excerpt: In developing a preliminary structural activity relationship (SAR) for the chrologs, we divided the structure of the pyran into four main components: (1)C-2 substituents (carboxylic acid of chrolactomycin); (2) C-6 substituents (chrolactomycin macrolide loop); (3) C-3 substituents (fused γ-lactone of chrolactomycin) and (4) inclusion of the exocyclic methylene group. We carried out systematic modifications of each structural unit and evaluated the effects on telomerase activity as measured by a PCR-based telomerase activity assay (TRAP assay).^16
Telomeric Repeat Amplification Protocol Assay. The telomeric repeat amplification protocol (TRAP) assay was performed using the TRAPeze RT Telomerase Detection Kit (EMD Millipore) and iTaq DNA polymerase (Bio-Rad) according to the manufacturer's protocol.
Cell Lysate TRAP Analysis. MCF-7, HeLa, ACHN, MDA-MB231 and A549 cells were cultured in DMEM media supplemented with 10% Fetal Bovine Serum (FBS), 1% pen/strep and with 5% CO2 and 37° C. Cells were plated in 2×T75 flasks and cultured for 3 days. Flasks were rinsed twice with PBS and treated with 0.05% trypsin-EDTA (Thermo Fisher) to detach cells. […] Cell extracts were transferred to microcentrifuge tubes, 200 μl/tube, and centrifuged at 12,000×g for 20 min at 4° C. to remove cell debris. Stock solutions of compounds were made in DMSO with a concentration of 100 mM and a […] dilution was performed in DMSO in a 96-well plate to produce compound solutions of 100, 10, 1, 0.1, 0.01, and 0.001 mM (1000× of the final concentration). The 1000× stock solutions of the compound samples were transferred to a 96-well plate using the Echo 550 (Labcyte) and then diluted with the cell extracts to yield final compound concentrations of 100, 10, 1, 0.1, 0.01, and 0.001 μM. The plate was covered and shaken at room temperature for 30 min. For TRAPeze reactions, a “master mix” was prepared according to the TRAPeze protocol, containing 5 μl of the TRAPeze reaction mix; 0.4 μl Taq polymerase; 17.6 μl PCR grade, nuclease-free water. The master mix and treated cell extracts were transferred using the Mosquito Crystal Liquid Handling System (TTP Labtech) into separate wells in a white, 384-well RT-PCR plate. Each well contained 1.2 μl of the master mix and 1.2 μl of the treated cell extract to give a final volume of 2.4 μl, with two duplicates for each sample. The RT-PCR plate was then sealed and centrifuged for 5 min. A sample containing only CHAPS Lysis Buffer was included as negative control. The TSR8 standards were included to generate a standard curve. Samples were amplified in a CFW384 RT-PCR (BioRad) detection system with PCR parameters of 30 min at 30° C. for 1 cycle, 2 min at 95° C. for 1 cycle, and then 45 cycles of 15 s at 94° C., 60 s at 59° C., and 10 s at 45° C. Real-time fluorescent data was obtained during the 10 s at 45° C. step. The number of cycles at which the fluorescence level reached a threshold (Ct) was averaged between the duplicates for each sample. Using a calibration curve obtained from the TSR8 standards, a linear equation was obtained to convert the Ct values into arbitrary telomerase activity units, which were plotted as a function of compound concentration to construct dose-response curves and calculate IC50.
T1 sequence (O14746 whole entry): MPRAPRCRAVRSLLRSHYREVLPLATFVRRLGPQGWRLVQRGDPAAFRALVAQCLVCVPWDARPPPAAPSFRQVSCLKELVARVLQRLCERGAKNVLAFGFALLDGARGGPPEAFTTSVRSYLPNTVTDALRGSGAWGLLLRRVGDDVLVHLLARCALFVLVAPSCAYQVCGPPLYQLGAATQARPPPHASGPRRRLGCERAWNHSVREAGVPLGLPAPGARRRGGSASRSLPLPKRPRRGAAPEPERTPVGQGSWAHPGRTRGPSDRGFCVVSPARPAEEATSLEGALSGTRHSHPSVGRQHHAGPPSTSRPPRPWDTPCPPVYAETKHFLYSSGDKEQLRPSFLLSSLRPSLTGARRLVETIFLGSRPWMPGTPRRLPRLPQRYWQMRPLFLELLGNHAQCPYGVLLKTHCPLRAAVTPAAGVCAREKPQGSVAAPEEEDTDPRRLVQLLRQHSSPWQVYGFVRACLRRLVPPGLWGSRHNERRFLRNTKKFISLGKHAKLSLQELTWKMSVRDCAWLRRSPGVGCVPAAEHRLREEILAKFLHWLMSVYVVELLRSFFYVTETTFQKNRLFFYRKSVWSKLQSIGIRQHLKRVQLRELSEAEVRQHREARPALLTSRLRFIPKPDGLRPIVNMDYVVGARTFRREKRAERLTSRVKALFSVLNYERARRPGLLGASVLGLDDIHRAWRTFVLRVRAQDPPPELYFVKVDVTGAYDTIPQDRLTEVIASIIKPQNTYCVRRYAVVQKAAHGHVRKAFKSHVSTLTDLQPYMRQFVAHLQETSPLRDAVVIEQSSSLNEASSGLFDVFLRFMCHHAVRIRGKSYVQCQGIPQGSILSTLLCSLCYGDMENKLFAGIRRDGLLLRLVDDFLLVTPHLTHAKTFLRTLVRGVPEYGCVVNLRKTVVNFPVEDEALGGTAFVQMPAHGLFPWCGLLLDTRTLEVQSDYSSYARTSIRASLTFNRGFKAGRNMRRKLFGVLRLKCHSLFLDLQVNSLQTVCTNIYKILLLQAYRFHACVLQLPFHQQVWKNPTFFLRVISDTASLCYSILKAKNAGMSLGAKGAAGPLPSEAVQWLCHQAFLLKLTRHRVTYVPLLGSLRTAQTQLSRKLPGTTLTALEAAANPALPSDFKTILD
T1 sequence (O60832 whole entry partner): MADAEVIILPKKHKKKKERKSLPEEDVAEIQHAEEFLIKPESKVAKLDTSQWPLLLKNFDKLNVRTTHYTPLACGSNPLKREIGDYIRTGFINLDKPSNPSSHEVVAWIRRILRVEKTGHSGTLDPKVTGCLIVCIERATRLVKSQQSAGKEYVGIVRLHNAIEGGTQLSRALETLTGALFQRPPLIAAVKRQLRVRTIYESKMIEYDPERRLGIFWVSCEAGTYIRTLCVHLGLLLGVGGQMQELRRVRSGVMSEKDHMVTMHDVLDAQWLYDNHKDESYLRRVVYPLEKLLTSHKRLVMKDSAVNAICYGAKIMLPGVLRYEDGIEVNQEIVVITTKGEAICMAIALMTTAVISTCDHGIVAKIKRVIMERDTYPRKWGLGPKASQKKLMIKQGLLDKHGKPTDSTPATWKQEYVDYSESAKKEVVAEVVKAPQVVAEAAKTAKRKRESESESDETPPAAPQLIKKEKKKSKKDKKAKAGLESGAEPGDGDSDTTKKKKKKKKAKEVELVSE
T1 sequence (Q9NPE3 whole entry partner): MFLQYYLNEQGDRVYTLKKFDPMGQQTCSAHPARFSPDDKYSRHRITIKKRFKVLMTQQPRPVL
T1 sequence (Q9NX24 whole entry partner): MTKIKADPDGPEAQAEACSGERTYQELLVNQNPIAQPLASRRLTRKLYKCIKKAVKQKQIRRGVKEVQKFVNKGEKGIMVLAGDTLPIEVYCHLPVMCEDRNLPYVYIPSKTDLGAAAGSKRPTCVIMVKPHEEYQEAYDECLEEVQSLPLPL
T1 sequence (Q9NY12 whole entry partner): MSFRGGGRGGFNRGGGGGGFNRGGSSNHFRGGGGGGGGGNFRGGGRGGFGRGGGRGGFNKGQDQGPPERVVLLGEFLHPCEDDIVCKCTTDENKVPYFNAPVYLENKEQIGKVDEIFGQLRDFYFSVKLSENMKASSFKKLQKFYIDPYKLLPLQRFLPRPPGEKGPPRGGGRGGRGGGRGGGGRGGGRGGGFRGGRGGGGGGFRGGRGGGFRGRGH
T1 sequence (Q9BUR4 whole entry partner): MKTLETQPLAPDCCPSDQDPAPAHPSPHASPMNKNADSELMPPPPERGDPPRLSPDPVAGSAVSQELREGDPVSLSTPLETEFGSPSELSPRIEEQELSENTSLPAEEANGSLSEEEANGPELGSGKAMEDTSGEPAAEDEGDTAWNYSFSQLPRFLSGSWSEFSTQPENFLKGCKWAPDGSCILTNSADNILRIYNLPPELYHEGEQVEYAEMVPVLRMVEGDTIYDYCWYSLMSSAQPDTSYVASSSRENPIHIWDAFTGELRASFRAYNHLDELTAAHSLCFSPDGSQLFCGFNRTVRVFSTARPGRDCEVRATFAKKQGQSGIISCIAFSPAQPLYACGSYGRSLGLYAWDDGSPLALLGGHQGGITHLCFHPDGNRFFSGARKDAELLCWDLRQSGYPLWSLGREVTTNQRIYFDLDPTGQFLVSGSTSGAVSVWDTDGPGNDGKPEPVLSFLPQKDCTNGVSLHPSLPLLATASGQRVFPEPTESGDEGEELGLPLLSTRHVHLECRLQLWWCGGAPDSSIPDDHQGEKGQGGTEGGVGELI
As usually defined, the IC50 is the point on the concentration scale where inhibition reaches its midpoint. For `C=C1C(=O)[C@@](C)(C(=O)OCCCC)[C@@H](CCc2ccc(NC(C)=O)cc2)O[C@H]1C` (racemic) [Compound 4n, (±) butyl (2S,3R,6R)-2-(4-acetamidophenethyl)-3,6-dimethyl-5-methylene-4-oxotetrahydro2H-pyran-3-carboxylate], the IC50 came to 85 µM.

Staying with this experiment, now noted: TRAP assay, MCF-7 cell lysates; read-out: IC50.
Regarding `C=C1C(=O)[C@](C)(C(=O)OC)[C@H](CCc2ccc(NC(C)=O)cc2)O[C@@H]1C` (racemic) [Compound 4a, (±) methyl (2S,3R,6R)-2-(4-acetamidophenethyl)-3,6-dimethyl-5-methylene-4-oxotetrahydro2H-pyran-3-carboxylate], the IC50 came to 1.5 µM.

Turning to `C=C1C(=O)C(C)(C(=O)OC)C(CCc2ccc(NC(C)=O)cc2)OC1C` (single isomer, unassigned) [opposite antipode], the half-inhibitory concentration (IC50) is 4.5 µM.

Take `C=C1C(=O)C(C)(C(=O)OC)C(CCc2ccc(NC(C)=O)cc2)OC1C` (single isomer, unassigned) [enantiopure para N-acetylphenethyl analogue]: the IC50 turned out to be 0.9 µM.

Consider `C=C1C(=O)[C@]2(C)C(=O)O[C@@]34C[C@H](C)C(C(=O)O)=C[C@@H]3CCC[C@@H](C)C[C@@H](C)[C@H]1O[C@H]24` [okilactomycin, reference compound], for which the IC50 was determined as 2.1 µM.

The experiment is the same for the next values; noted with them: Table 1, C-2 and C-6 groups; TRAP assay; read-out: IC50.
On to `C=C1C(=O)[C@](C)(C(=O)OC)[C@H](CCc2ccc(NC(C)=O)cc2)O[C@@H]1C` (racemic) [Compound 4a, (±) methyl (2S,3R,6R)-2-(4-acetamidophenethyl)-3,6-dimethyl-5-methylene-4-oxotetrahydro2H-pyran-3-carboxylate], for which the IC50 stood at 1.5 µM.

For `C=C1C(=O)[C@@](C)(C(=O)OC)[C@@H](CCc2cccc(F)c2)O[C@H]1C` (racemic) [Compound 4h, (±) methyl (2S,3R,6R)-2-(3-fluorophenethyl)-3,6-dimethyl-5-methylene-4-oxotetrahydro-2H pyran-3-carboxylate], the IC50 is greater than 100 µM.

`C=C1C(=O)[C@](C)(C(=O)OC)[C@H](CC(C)C)O[C@@H]1C` (racemic) [Compound 4c, (±) methyl (2S,3R,6R)-2-isobutyl-3,6-dimethyl-5-methylene-4-oxotetrahydro-2H-pyran-3 carboxylate]: the IC50 is greater than 100 µM.

`C=C1C(=O)[C@@](C)(C(=O)OC)[C@@H](CCc2ccc(NC(C)=O)cc2)O[C@H]1CC(C)C` (racemic) [Compound 4i, (±) methyl (2S,3R,6R)-2-(4-acetamidophenethyl)-6-isobutyl-3-methyl-5-methylene-4oxotetrahydro-2H-pyran-3-carboxylate]: the IC50 was found to be 45 µM.

Regarding `C=C1C(=O)[C@@](C)(C(=O)OC)[C@@H](CCc2ccc(NC(C)=O)cc2)O[C@H]1CCc1ccccc1` (racemic) [Compound 4j, (±) methyl (2S,3R,6R)-2-(4-acetamidophenethyl)-3-methyl-5-methylene-4-oxo-6phenethyltetrahydro-2H-pyran-3-carboxylate], the IC50 is greater than 100 µM.

On to `C=C1C(=O)[C@](C)(C(=O)OC)[C@H](CCc2ccc(F)cc2)O[C@@H]1C` (racemic) [Compound 4d, (±) methyl (2S,3R,6R)-2-(4-fluorophenethyl)-3,6-dimethyl-5-methylene-4-oxotetrahydro-2H pyran-3-carboxylate], for which the IC50 was found to be 42 µM.

`C=C1C(=O)[C@](C)(C(=O)OC)C(CCc2ccc(OC)cc2)O[C@@H]1C` (mixture of isomers) [Compound 4f, (±) methyl (2S,3R,6R)-2-(4-methoxyphenethyl)-3,6-dimethyl-5-methylene-4-oxotetrahydro2H-pyran-3-carboxylate]: the IC50 was found to be 62 µM.

Take `C=C1C(=O)[C@@](C)(C(=O)OC)[C@@H](CCc2ccc(C(F)(F)F)cc2)O[C@H]1C` (racemic) [Compound 4e, (±) methyl (2S,3R,6R)-3,6-dimethyl-5-methylene-4-oxo-2-(4(trifluoromethyl)phenethyl)tetrahydro-2H-pyran-3-carboxylate]: the IC50 is 55 µM.

With `C=C1C(=O)[C@](C)(C(=O)OC)[C@H](CCc2ccccc2)O[C@@H]1C` (racemic) [Compound 4b, (±) methyl (2S,3R,6R)-3,6-dimethyl-5-methylene-4-oxo-2-phenethyltetrahydro-2H-pyran-3 carboxylate], the IC50 is greater than 100 µM.

In the case of `C=C1C(=O)[C@@](C)(C(=O)OC)[C@@H](CCc2cccc(NC(C)=O)c2)O[C@H]1C` (racemic) [Compound 4g, (±) methyl (2S,3R,6R)-2-(3-acetamidophenethyl)-3,6-dimethyl-5-methylene-4-oxotetrahydro2H-pyran-3-carboxylate], the IC50 stood at 11 µM.

The same experiment, now with this note: Table 2, C-3 group; TRAP assay; read-out: IC50.
For the molecule `C=C1C(=O)[C@@](C(=O)OC)(C(C)C)[C@H](CCc2ccc(NC(C)=O)cc2)O[C@@H]1C` (racemic) [Compound 4r, (±) methyl (2S,3R,6R)-2-(4-acetamidophenethyl)-3-isopropyl-6-methyl-5-methylene-4oxotetrahydro-2H-pyran-3-carboxylate], the IC50 came to 62 µM.

Turning to `C=C1C(=O)[C@](C)(C(=O)OC)[C@H](CCc2ccc(NC(C)=O)cc2)O[C@@H]1C` (racemic) [Compound 4a, (±) methyl (2S,3R,6R)-2-(4-acetamidophenethyl)-3,6-dimethyl-5-methylene-4-oxotetrahydro2H-pyran-3-carboxylate], the IC50 worked out at 1.5 µM.

For the molecule `C=C1C(=O)[C@](C)(C(=O)OCc2ccccc2)C(CCc2ccc(NC(C)=O)cc2)O[C@@H]1C` (mixture of isomers) [Compound 4m, (±) benzyl (2S,3R,6R)-2-(4-acetamidophenethyl)-3,6-dimethyl-5-methylene-4-oxotetrahydro2H-pyran-3-carboxylate], the IC50 was 35 µM.

On to `C=C1C(=O)[C@@](CC)(C(=O)OC)[C@@H](CCc2ccc(NC(C)=O)cc2)O[C@H]1C` (racemic) [Compound 4q, (±) methyl (2S,3R,6R)-2-(4-acetamidophenethyl)-3-ethyl-6-methyl-5-methylene-4oxotetrahydro-2H-pyran-3-carboxylate], for which the half-inhibitory concentration (IC50) came to 15 µM.

In the case of `C=C1C(=O)[C@](C)(C(=O)OCCOC)[C@@H](CCc2ccc(NC(C)=O)cc2)O[C@H]1C` [Compound 4p], the IC50 was 25 µM.

`C=C1C(=O)[C@@](C)(C(=O)OCC2CC2)[C@@H](CCc2ccc(NC(C)=O)cc2)O[C@H]1C` (racemic) [Compound 4l, (±) cyclopropylmethyl (2S,3R,6R)-2-(4-acetamidophenethyl)-3,6-dimethyl-5-methylene-4oxotetrahydro-2H-pyran-3-carboxylate]: the IC50 was determined as 75 µM.

Turning to `C=C1C(=O)[C@@](C)(C(=O)OC(C)C)[C@@H](CCc2ccc(NC(C)=O)cc2)O[C@H]1C` (racemic) [Compound 4k, (±) isopropyl (2S,3R,6R)-2-(4-acetamidophenethyl)-3,6-dimethyl-5-methylene-4oxotetrahydro-2H-pyran-3-carboxylate], the IC50 came out at 45 µM.

A further experiment deals with tcTERT. As to the kind of experiment: Protease digestion and mass spectrometry of treated tcTERT. The settings on record: proteolysis and tandem mass spectrometry. Format: binding, Tribolium castaneum. Here is the method: Protease Digestion and Mass Spectrometry Analysis. tcTERT (50 μg, ˜600 pmol) was treated with chrolactomycin, NU-1, helenalin, costunolide or DMSO for 1 hr at 37° C. The reaction was diluted with ammonium bicarbonate buffer (pH 8.0), then reduced for 30 min at 56° C. with 10 mM DTT. After cooling to 23° C., the protein was alkylated with 25 mM iodoacetamide for 30 min at 23° C. in the dark, followed by trypsin digestion (2.5 μg, Promega) overnight at 37° C. Digested peptides (˜2 pmol) were injected onto a self-packed precolumn (4 cm POROS10R2) and eluted into the mass spectrometer (LTQ Orbitrap Velos, Thermo Fisher). Peptides were subjected to MS^2 by CAD (electron multiplier detection, relative collision energy 35%, q=0.25).
Regarding `C=C1C(=O)O[C@@H]2C[C@@H](C)[C@@H]3C=CC(=O)[C@@]3(C)[C@@H](O)[C@H]12` [helenalin], the “adduct formation with tcTERT peptides” value was “no adduct formation”.

On to `C=C1C(=O)O[C@@H]2/C=C(\C)CC/C=C(\C)CC[C@@H]12` [costunolide], for which the “adduct formation with tcTERT peptides” value was “no adduct formation”.

The record behind these values is patent US11518750B2, “3-methylideneoxan-4-one compounds and substituted derivatives thereof as inhibitors of telomerase” (NORTHWESTERN UNIVERSITY, priority 2019, dated 2022).
